Laboratory results from patent publication US8716284B2, “Adamantyl diamide derivatives and uses of same” (H. Lundbeck A/S, priority 2008, dated 2014).

Target: T1, rat metabotropic glutamate receptor 5 (mGluR5) (Rattus norvegicus, UniProt P31424)
T1 construct: expressed in transfected cells; host or cells: HEK 293
Assay: Calcium mobilization assay (FLIPR) for negative or positive allosteric activity, HEK 293 cells
Assay type: cell-based
Details: HEK293, negative allosteric modulation, inhibition of EC80 glutamate response; read-out: FLIPR maximum inhibition
Summary of the method: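 HEK 293 cells stably expressing rat mGluR5, Fluo-4 loaded in HEPES-buffered HBSS pH 7.4 with 0.1% BSA and probenecid. Compound added with EC20 (potentiation) or EC80 (inhibition) glutamate; fluorescence read over 3 min at room temperature. Basal-subtracted maximum fluorescence change fitted to Hill equation.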

T1 sequence (P31424 21-1171 isoform P31424-2 limits assumed): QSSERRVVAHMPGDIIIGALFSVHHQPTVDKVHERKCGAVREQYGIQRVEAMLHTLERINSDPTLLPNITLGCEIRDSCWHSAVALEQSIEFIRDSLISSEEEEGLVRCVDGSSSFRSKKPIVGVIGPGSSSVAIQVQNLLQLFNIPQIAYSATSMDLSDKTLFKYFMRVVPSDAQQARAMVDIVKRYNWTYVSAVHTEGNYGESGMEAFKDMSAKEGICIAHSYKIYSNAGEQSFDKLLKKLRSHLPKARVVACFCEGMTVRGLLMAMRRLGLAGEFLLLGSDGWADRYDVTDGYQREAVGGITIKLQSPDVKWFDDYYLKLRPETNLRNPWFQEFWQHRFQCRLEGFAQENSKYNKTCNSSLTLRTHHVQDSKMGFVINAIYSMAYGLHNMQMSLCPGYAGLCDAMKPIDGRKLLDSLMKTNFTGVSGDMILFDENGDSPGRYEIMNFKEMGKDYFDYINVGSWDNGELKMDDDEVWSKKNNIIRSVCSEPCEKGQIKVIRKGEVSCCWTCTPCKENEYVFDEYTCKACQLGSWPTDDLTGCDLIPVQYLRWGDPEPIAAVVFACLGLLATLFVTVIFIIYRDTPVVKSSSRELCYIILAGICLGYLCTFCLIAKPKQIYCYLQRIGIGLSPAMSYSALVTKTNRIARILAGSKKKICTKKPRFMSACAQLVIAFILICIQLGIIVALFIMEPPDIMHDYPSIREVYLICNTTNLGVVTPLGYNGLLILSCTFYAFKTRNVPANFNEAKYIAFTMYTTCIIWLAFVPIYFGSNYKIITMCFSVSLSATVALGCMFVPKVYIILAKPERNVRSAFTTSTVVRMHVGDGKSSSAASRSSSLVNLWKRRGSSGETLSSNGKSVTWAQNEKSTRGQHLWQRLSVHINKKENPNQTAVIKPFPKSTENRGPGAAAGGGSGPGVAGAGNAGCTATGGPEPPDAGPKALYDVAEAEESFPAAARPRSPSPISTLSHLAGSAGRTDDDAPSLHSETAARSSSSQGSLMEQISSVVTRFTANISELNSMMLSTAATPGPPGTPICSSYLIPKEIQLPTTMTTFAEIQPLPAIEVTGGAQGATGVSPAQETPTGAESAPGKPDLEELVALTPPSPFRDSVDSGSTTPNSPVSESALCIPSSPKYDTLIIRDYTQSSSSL

Row | Compound | Emax [%]
1 | NC(=O)[C@@H]1CCCN1c1cccc(C(=O)NC23CC4CC(CC(NC(=O)c5cccc(F)c5)(C4)C2)C3)n1 [Example 251, 6-((S)-2-Carbamoyl-pyrrolidin-1-yl)-pyridine-2-carboxylic acid [3-(3-fluoro-benzoylamino)-adamantan-1-yl]-amide] | 63 to 99
2 | N#Cc1cccc(C(=O)NC23CC4CC(C2)CC(NC(=O)c2cccc(C#N)c2)(C4)C3)c1 [Example 5, N,N′-(1,3-adamantylene)bis(3-cyano-benzamide)] | 90 to 99
3 | Cn1nc(C(=O)NC23CC4CC(CC(NC(=O)c5ccccn5)(C4)C2)C3)cc1-c1cccs1 [Example 8, Pyridine-2-carboxylic acid {3-[(1-methyl-5-thiophen-2-yl-1H-pyrazole-3-carbonyl)-amino]-adamantan-1-yl}-amide] | 90 to 99
4 | COCCN(C)c1cccc(C(=O)NC23CC4CC(CC(NC(=O)c5cccc(F)c5)(C4)C2)C3)n1 [Example 246, 6-[(2-Methoxy-ethyl)-methyl-amino]-pyridine-2-carboxylic acid [3-(3-fluoro-benzoylamino)-adamantan-1-yl]-amide] | 63 to 99
5 | O=C(NC12CC3CC(C1)CC(NC(=O)c1ccc4[nH]ccc4n1)(C3)C2)c1ccccn1 [Example 66, 1H-Pyrrolo[3,2-b]pyridine-5-carboxylic acid {3-[(pyridine-2-carbonyl)-amino]-adamantan-1-yl}-amide] | 63 to 99
6 | O=C(NC12CC3CC(C1)CC(NC(=O)c1nccc(C(F)(F)F)n1)(C3)C2)c1ccccn1 [Example 113, 4-Trifluoromethyl-pyrimidine-2-carboxylic acid {3-[(pyridine-2-carbonyl)-amino]-adamantan-1-yl}-amide] | 70 to 99
7 | CN(C)CCCNc1cccc(C(=O)NC23CC4CC(CC(NC(=O)c5ccccn5)(C4)C2)C3)n1 [Example 226, 6-(3-Dimethylamino-propylamino)-pyridine-2-carboxylic acid {3-[(pyridine-2-carbonyl)-amino]-adamantan-1-yl}-amide] | 63 to 99
8 | O=C(NC12CC3CC(C1)CC(NC(=O)c1ccnc(C(F)(F)F)n1)(C3)C2)c1ccccn1 [Example 112, 2-Trifluoromethyl-pyrimidine-4-carboxylic acid {3-[(pyridine-2-carbonyl)-amino]-adamantan-1-yl}-amide] | 70 to 99
9 | CN(C)CCNc1cccc(C(=O)NC23CC4CC(CC(NC(=O)c5cccc(F)c5)(C4)C2)C3)n1 [Example 242, 6-(2-Dimethylamino-ethylamino)-pyridine-2-carboxylic acid [3-(3-fluoro-benzoylamino)-adamantan-1-yl]-amide] | 63 to 99
10 | O=C(NC12CC3CC(C1)CC(NC(=O)c1ccnc(C(F)(F)F)n1)(C3)C2)c1cnccn1 [Example 190, 2-Trifluoromethyl-pyrimidine-4-carboxylic acid {3-[(pyrazine-2-carbonyl)-amino]-adamantan-1-yl}-amide] | 63 to 99
11 | O=C(NC12CC3CC(C1)CC(NC(=O)c1cccc(N4CCC[C@@H]4CO)n1)(C3)C2)c1ccccn1 [Example 229, 6-((R)-2-Hydroxymethyl-pyrrolidin-1-yl)-pyridine-2-carboxylic acid {3-[(pyridine-2-carbonyl)-amino]-adamantan-1-yl}-amide] | 63 to 99
12 | CC(C)(C)OC(=O)N1CCc2cc(C(=O)NC34CC5CC(C3)CC(NC(=O)c3ccccn3)(C5)C4)ccc2C1 [Example 70, 6-{3-[(Pyridine-2-carbonyl)-amino]-adamantan-1-yl-carbamoyl}-3,4-dihydro-1H-isoquinoline-2-carboxylic acid tert-butyl ester] | 63 to 99
13 | CN(CCO)c1cccc(C(=O)NC23CC4CC(CC(NC(=O)c5cccc(F)c5)(C4)C2)C3)n1 [Example 213, 6-[(2-Hydroxy-ethyl)-methyl-amino]-pyridine-2-carboxylic acid [3-(3-fluoro-benzoylamino)-adamantan-1-yl]-amide] | 63 to 99
14 | Cn1nc(C(=O)NC23CC4CC(CC(NC(=O)c5ccccn5)(C4)C2)C3)cc1-c1ccco1 [Example 9, Pyridine-2-carboxylic acid {3-[(5-furan-2-yl-1-methyl-1H-pyrazole-3-carbonyl)-amino]-adamantan-1-yl}-amide] | 90 to 99
15 | CC(=O)NCCNc1cccc(C(=O)NC23CC4CC(CC(NC(=O)c5cccc(C)n5)(C4)C2)C3)n1 [Example 234, 6-(2-Acetylamino-ethylamino)-pyridine-2-carboxylic acid {3-[(6-methyl-pyridine-2-carbonyl)-amino]-adamantan-1-yl}-amide] | 63 to 99
16 | COCCCNc1cccc(C(=O)NC23CC4CC(CC(NC(=O)c5cccc(F)c5)(C4)C2)C3)n1 [Example 241, 6-(3-Methoxy-propylamino)-pyridine-2-carboxylic acid [3-(3-fluoro-benzoylamino)-adamantan-1-yl]-amide] | 63 to 99
17 | Cc1cccc(C(=O)NC23CC4CC(C2)CC(NC(=O)c2cccc(C)c2)(C4)C3)c1 [Example 16, N,N′-(1,3-adamantylene)bis(3-menthylbenzamide)] | 63 to 99

Results, then the compound that gave them:

Row | Emax [%] | Compound
18 | 63 to 99 | Cc1cccc(C(=O)NC23CC4CC(C2)CC(NC(=O)c2cccc(Cl)n2)(C4)C3)n1 [Example 57, 6-Chloro-pyridine-2-carboxylic acid {3-[(6-methyl-pyridine-2-carbonyl)-amino]-adamantan-1-yl}-amide]
19 | 63 to 99 | Cc1cccc(C(=O)NC23CC4CC(C2)CC(NC(=O)c2cccc(CC#N)n2)(C4)C3)n1 [Example 25, 6-Cyanomethyl-pyridine-2-carboxylic acid {3-[(6-methyl-pyridine-2-carbonyl)-amino]-adamantan-1-yl}-amide]
20 | 63 to 99 | Cc1cccc(C(=O)NC23CC4CC(C2)CC(NC(=O)c2cn5ccccc5n2)(C4)C3)n1 [Example 52, Imidazo[1,2-a]pyridine-2-carboxylic acid {3-[(6-methyl-pyridine-2-carbonyl)-amino]-adamantan-1-yl}-amide]
21 | 70 to 99 | Cc1cccc(C(=O)NC23CC4CC(C2)CC(NC(=O)c2cccc(CO)n2)(C4)C3)n1 [Example 134, 6-Methyl-pyridine-2-carboxylic acid {3-[(6-hydroxymethylpyridine-2-carbonyl)-amino]-adamantan-1-yl}-amide]
22 | 70 to 99 | Cc1cccc(C(=O)NC23CC4CC(CC(NC(=O)c5cccnc5)(C4)C2)C3)n1 [Example 115, 6-Methyl-pyridine-2-carboxylic acid {3-[(pyridine-3-carbonyl)-amino]-adamantan-1-yl}-amide]
23 | 63 to 99 | Cc1cncc(C(=O)NC23CC4CC(CC(NC(=O)c5ccc6ocnc6c5)(C4)C2)C3)n1 [Example 175, Benzoxazole-5-carboxylic acid {3-[(6-methyl-pyrazine-2-carbonyl)-amino]-adamantan-1-yl}-amide]
24 | 63 to 99 | Cc1cccc(C(=O)NC23CC4CC(C2)CC(NC(=O)c2scc5c2OCCO5)(C4)C3)n1 [Example 38, 6-Methyl-pyridine-2-carboxylic acid {3-[(2,3-dihydro-thieno[3,4-b][1,4]dioxine-5-carbonyl)-amino]-adamantan-1-yl}-amide]
25 | 70 to 99 | Cc1cc(C(=O)NC23CC4CC(CC(NC(=O)c5ccccn5)(C4)C2)C3)nc(C)n1 [Example 106, 2,6-Dimethyl-pyrimidine-4-carboxylic acid {3-[(pyridine-2-carbonyl)-amino]-adamantan-1-yl}-amide]
26 | 63 to 99 | Cc1cccc(C(=O)NC23CC4CC(C2)CC(NC(=O)c2cncc(C)n2)(C4)C3)n1 [Example 21, 6-Methyl-pyrazine-2-carboxylic acid {3-[(6-methyl-pyridine-2-carbonyl)-amino]-adamantan-1-yl}-amide]
27 | 70 to 99 | Cc1cccc(C(=O)NC23CC4CC(CC(NC(=O)c5ccc(F)cn5)(C4)C2)C3)n1 [Example 137, 5-Fluoro-pyridine-2-carboxylic acid {3-[(6-methyl-pyridine-2-carbonyl)-amino]-adamantan-1-yl}-amide]
28 | 63 to 99 | COCCNc1cccc(C(=O)NC23CC4CC(CC(NC(=O)c5cccc(C)n5)(C4)C2)C3)n1 [Example 235]
29 | 63 to 99 | Cc1cc(C(=O)NC23CC4CC(CC(NC(=O)c5ccccn5)(C4)C2)C3)no1 [Example 73, Pyridine-2-carboxylic acid {3-[(5-methyl-isoxazole-3-carbonyl)-amino]-adamantan-1-yl}-amide]
30 | 70 to 99 | CC(=O)c1cccc(C(=O)NC23CC4CC(CC(NC(=O)c5cccc(C)n5)(C4)C2)C3)n1 [Example 142, 6-Methyl-pyridine-2-carboxylic acid {3-[(6-acetyl-pyridine-2-carbonyl)-amino]-adamantan-1-yl}-amide]
31 | 63 to 99 | Cc1cncc(C(=O)NC23CC4CC(CC(NC(=O)c5ccc(F)c(C)c5)(C4)C2)C3)n1 [Example 166, 6-Methyl-pyrazine-2-carboxylic acid [3-(4-fluoro-3-methyl-benzoylamino)-adamantan-1-yl]-amide]
32 | 70 to 99 | Cc1cc(F)cc(C(=O)NC23CC4CC(C2)CC(NC(=O)c2cncc(C)n2)(C4)C3)c1 [Example 158, 6-Methyl-pyrazine-2-carboxylic acid [3-(3-fluoro-5-methyl-benzoylamino)-adamantan-1-yl]-amide]
33 | 70 to 99 | COc1cc(C(=O)NC23CC4CC(C2)CC(NC(=O)c2cncc(C)n2)(C4)C3)ccc1F [Example 159, 6-Methyl-pyrazine-2-carboxylic acid [3-(4-fluoro-3-methoxy-benzoylamino)-adamantan-1-yl]-amide]
34 | 63 to 99 | COc1cccc(C(=O)NC23CC4CC(CC(NC(=O)c5cncc(C)n5)(C4)C2)C3)c1F [Example 167, 6-Methyl-pyrazine-2-carboxylic acid [3-(2-fluoro-3-methoxy-benzoylamino)-adamantan-1-yl]-amide]
35 | 63 to 99 | Cc1cccc(C(=O)NC23CC4CC(C2)CC(NC(=O)C2CCC2)(C4)C3)n1 [Example 46, 6-Methyl-pyridine-2-carboxylic acid [3-(cyclobutanecarbonyl-amino)-adamantan-1-yl]-amide]
